Laboratory results published in PMC6934184, “Selective DNA-PKcs inhibition extends the therapeutic index of localized radiotherapy and chemotherapy” (The Journal of Clinical Investigation, 2019).

Biological target: T1, PRKACA (PKA) (Homo sapiens, UniProt P17612)
T1 construct: purchased Thermo Fisher Scientific (Life Technologies) SelectScreen
Assay: SelectScreen Z'LYTE
Assay type: biochemical
Procedure, shortened: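 SelectScreen broad panel; activity (Z'LYTE, Adapta) plus binding formats. ATP: Km app for CSF1R Z'LYTE; 10 for CAMK1 Adapta. Readout = % per kinase.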

Compound: CN(C(=O)CN1CCOCC1)c1ccc2sc3c(-c4cccc5c(=O)cc(N6CC7CCC(C6)O7)oc45)cccc3c2c1 [NU5455]
- inhibition at 1 µM: 14%
